According to patent US20260091209A1, “DRUG DELIVERY DEVICE” (priority 2022, published 2026):
Values belong to the compound of their own block, whether it stands above or below them.

Experiments:
[1] = Drug release rate into 50:50 DMSO:water release media, HPLC; format: physicochemical; conditions: for completeness of release after 7 days / course of release (plateau): FOLFIRINOX components from device, FIG. 5; for course of release (plateau): over 7 days
Method: Drug release rate was measured using 50 mL of release media consisting of 50:50 DMSO:water to ensure that all drugs in the composition remained under sink conditions. Each device was suspended above the release media in a 50 mL sealed Duran bottle with only the permeable release zone in contact with the release media. The Duran bottle was subsequently placed in a shaking incubator at 37° C. and 60 RPM. 5 mL samples of release media were removed and replaced with 5 mL of fresh media either every day for 6 days or at day 1, 3, 5 and 7. The samples were analysed for drug concentration using HPLC.
Release of the drug oxaliplatin by (i) an exposed sponge and (ii) a device according to the present invention was compared. The sponge was a gelatin sponge exposed to 50 mL of release media consisting of 50:50 DMSO. The sponge had the proportions 5 mm×10 mm×10 mm. […] The implantable device according to the invention contained a sponge within the enclosed space. Drug release was determined according to the methodology outlined above.
Release of the drug components of the FOLFIRINOX regimen from a device according to the invention was investigated. […] The implantable device according to the invention contained a sponge within the enclosed space. Drug release was determined according to the methodology outlined above.
The release of the drug irinotecan over 6 days through various membranes for use as the permeable release zone was investigated, to show how the device of the invention provides the skilled person with control over the release profile for the drug, by varying properties of the membrane.

pancreatic cancer = conditions: cited from earlier work
[2] = 1 mm EVA membrane, no pores, 75% infill

SMILES: Nc1ccn([C@@H]2O[C@H](CO)[C@@H](O)C2(F)F)c(=O)n1 [gemcitabine]
median disease-free survival (pancreatic cancer; Conroy et al (2018), patients after surgery): 12.8 months
disease-free survival rate at 3 years (pancreatic cancer; Conroy et al (2018)): 21.4%
median overall survival (pancreatic cancer; Conroy et al (2018)): 35.0 months
overall survival rate at 3 years (pancreatic cancer; Conroy et al (2018)): 48.6%
adverse events of grade 3 or 4, share of patients (pancreatic cancer; Conroy et al.): 52.9%

SMILES: O=C1[O][Pt]2([NH][C@@H]3CCCC[C@H]3[NH]2)[O]C1=O [oxaliplatin]
completeness of release after 7 days [1, 2]: still not complete
course of release (plateau) [1, 2]: began to plateau after three days
completeness of release at 7 days (168 hours) ([1]; device, 1 mm EVA membrane, no pores, 75% infill, sponge inside, FIG. 4): not complete
release plateau ([1]; device, 1 mm EVA membrane, no pores, 75% infill, after 5 days, FIG. 4): 75%
time to complete release ([1]; exposed gelatin sponge (comparative), FIG. 3): ≤ 7 h

Second part, led by results:

completeness of release after 7 days [1, 2]: still not complete
course of release (plateau) [1, 2]: began to plateau after three days
SMILES: O=c1[nH]cc(F)c(=O)[nH]1 [fluorouracil]

completeness of release after 7 days [1, 2]: still not complete
course of release (plateau) [1, 2]: began to plateau after three days
release character across all membranes investigated ([1]; device, over 6 days): useful sustained release
SMILES: CCc1c2c(nc3ccc(OC(=O)N4CCC(N5CCCCC5)CC4)cc13)-c1cc3c(c(=O)n1C2)COC(=O)[C@]3(O)CC [irinotecan]
release rate, membrane pore sizes 3 mm, 4 mm and 5 mm ([1]; 4 pores each, over 6 days, FIG. 6D): as pore size increased the rate of release also increased
release rate, membrane thickness 1 mm versus 2 mm ([1]; device, over 6 days, FIG. 6A): released faster through the membrane with a thickness of 1 mm
release rate, 3D printed membrane infill 50%, 75% and 100% ([1]; device, over 6 days, FIG. 6B): as the percentage infill increased, the release rate slowed
release rate, membranes with one, two or four pores ([1]; pores 3 mm diameter, over 6 days, FIG. 6C): as the number of pores increased the rate of release also increased

completeness of release after 7 days [1, 2]: still not complete
course of release (plateau) [1, 2]: began to plateau after three days
SMILES: Nc1nc2c(c(=O)[nH]1)N(C=O)C(CNc1ccc(C(=O)N[C@@H](CCC(=O)O)C(=O)O)cc1)CN2 (stereo partly drawn) [leucovorin]
